Assay results as given in patent publication US8440639B2, “Combination compositions for reducing intraocular pressure” (Inotek Pharmaceuticals Corporation, priority 2010, dated 2013).
Where a name gives a salt, the structure may show the parent alone.

Molecular target: T1, A1 receptor (Homo sapiens, UniProt P30542)
T1 sequence (P30542 1-326): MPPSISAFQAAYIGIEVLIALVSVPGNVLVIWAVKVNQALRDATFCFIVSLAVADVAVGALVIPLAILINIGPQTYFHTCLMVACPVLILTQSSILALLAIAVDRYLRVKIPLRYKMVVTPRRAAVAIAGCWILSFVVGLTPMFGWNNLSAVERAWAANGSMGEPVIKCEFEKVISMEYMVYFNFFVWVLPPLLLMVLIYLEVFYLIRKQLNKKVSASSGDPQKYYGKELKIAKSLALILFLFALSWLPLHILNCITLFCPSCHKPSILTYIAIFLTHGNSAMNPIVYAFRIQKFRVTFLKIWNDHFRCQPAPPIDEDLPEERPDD
Assay: Adenosine A1 receptor affinity (Ki potency)
Assay type: binding
Excerpt: As used herein, the term “A1 agonist” refers to an A1 agonist that has an affinity to the A1 receptor while simultaneously having a lower affinity for the A2 and A3 adenosine receptors.

Row | SMILES | Ki [nM]
1 | O=S(=O)(O)OC[C@H]1O[C@@H](n2cnc3c(NC4CCCC4)ncnc32)[C@H](O)[C@@H]1O [Compound C, sodium((2R,3S,4R,5R)-5-(6-(cyclopentylamino)-9H-purin-9-yl)-3,4-dihydroxytetrahydrofuran-2-yl)methyl sulfate] | 4.05
2 | O=[N+]([O-])OC[C@H]1O[C@@H](n2cnc3c(NC4CCCCC4)ncnc32)[C@H](O)[C@@H]1O [Compound E, ((2R,3S,4R,5R)-5-(6-(cyclohexylamino)-9H-purin-9-yl)-3,4-dihydroxytetrahydrofuran-2-yl)methyl nitrate] | 1.32
3 | O=S(=O)(O)OC[C@H]1O[C@@H](n2cnc3c(NC4CCCCC4)nc(Cl)nc32)[C@H](O)[C@@H]1O [Compound G, sodium((2R,3S,4R,5R)-5-(2-chloro-6-(cyclohexylamino)-9H-purin-9-yl)-3,4-dihydroxytetrahydrofuran-2-yl)methyl sulfate] | 1.36

Next, values leading:

Row | Ki [nM] | SMILES
4 | 10.6 | O=[N+]([O-])OC[C@H]1O[C@@H](n2cnc3c(NC4CCOC4)ncnc32)[C@H](O)[C@@H]1O (stereo partly drawn) [Compound D, ((2R,3S,4R,5R)-3,4-dihydroxy-5-(6-(tetrahydrofuran-3-ylamino)-9H-purin-9-yl)tetrahydrofuran-2-yl)methyl nitrate]
5 | 1.47 | O=[N+]([O-])OC[C@H]1O[C@@H](n2cnc3c(NC4CC5CCC4C5)ncnc32)[C@H](O)[C@@H]1O (stereo partly drawn) [Compound F, ((2R,3S,4R,5R)-5-(6-(bicycle-[2.2.1]-heptan-2-ylamino)-9H-purin-9-yl)-3,4-dihydroxytetrahydrofuran-2-yl)methyl nitrate]
